Measurements reported in ChEMBL document CHEMBL3885881, “DrugMatrix”.

Species: Rattus norvegicus
Experiment: DrugMatrix - Regimen: Daily Repeat
Format: toxicity, organism-based, Sprague-Dawley
Parameters: regimen Daily Repeat, gender Male, age 6-8 weeks
Details: in vivo, sc, route subcutaneous, […]; for ABSOLUTE BASOPHIL / ABSOLUTE EOSINOPHIL / ABSOLUTE LYMPHOCYTE / ABSOLUTE MONOCYTE / ABSOLUTE SEGMENTED NEUTROPHIL / BASOPHIL / EOSINOPHIL / ERYTHROCYTE COUNT / HEMATOCRIT / HEMOGLOBIN / LEUKOCYTE COUNT / LYMPHOCYTE / MEAN CORPUSCULAR HEMOGLOBIN / MEAN CORPUSCULAR HEMOGLOBIN CONCENTRATION / MEAN CORPUSCULAR VOLUME / MONOCYTE / NEUTROPHIL / NUCLEATED RED BLOOD CELLS / PLATELET COUNT: tissue Blood; for ALANINE AMINOTRANSFERASE / ALBUMIN / ALKALINE PHOSPHATASE / ASPARTATE AMINOTRANSFERASE / BLOOD UREA NITROGEN / CARBON DIOXIDE / CHLORIDE / CHOLESTEROL / CREATINE PHOSPHOKINASE / CREATININE / GLUCOSE / LACTATE DEHYDROGENASE / LIPASE / PHOSPHORUS / POTASSIUM / SODIUM / TOTAL BILIRUBIN / TOTAL PROTEIN / URIC ACID: tissue Plasma
[1] = 0 mg/kg, 72 h, dose level Control, time 3 day
[2] = 0 mg/kg, 120 h, dose level Control, time 5 day
[3] = 0.8 mg/kg, 72 h, dose level Low, time 3 day

Compound: Oc1c(Cl)cc(Cl)c(Cl)c1Cc1c(O)c(Cl)cc(Cl)c1Cl [HEXACHLOROPHENE]
- ABSOLUTE BASOPHIL [1]: 0 CELLS/uL
- ABSOLUTE EOSINOPHIL [1]: 92.33 CELLS/uL
- ABSOLUTE LYMPHOCYTE [1]: 12247.5 CELLS/uL
- ABSOLUTE MONOCYTE [1]: 389.67 CELLS/uL
- ABSOLUTE SEGMENTED NEUTROPHIL [1]: 1320.5 CELLS/uL
- BASOPHIL [1]: 0%
- EOSINOPHIL [1]: 0.67%
- ERYTHROCYTE COUNT [1]: 5.45 x10E6/uL
- HEMATOCRIT [1]: 34.85%
- HEMOGLOBIN [1]: 12.97 G/DL
- LEUKOCYTE COUNT [1]: 14.05 x10E3/uL
- LYMPHOCYTE [1]: 87.33%
- MEAN CORPUSCULAR HEMOGLOBIN [1]: 23.78 pg
- MEAN CORPUSCULAR HEMOGLOBIN CONCENTRATION [1]: 37.22 G/DL
- MEAN CORPUSCULAR VOLUME [1]: 63.93 fL
- MONOCYTE [1]: 2.67%
- NEUTROPHIL [1]: 9.33%
- NUCLEATED RED BLOOD CELLS [1]: 0 /100WBC
- PLATELET COUNT [1]: 1174 x10E3/uL
- ALANINE AMINOTRANSFERASE [1]: 48.83 u/L
- ALBUMIN [1]: 4.23 G/DL
- ALKALINE PHOSPHATASE [1]: 351.5 u/L
- ASPARTATE AMINOTRANSFERASE [1]: 90 u/L
- BLOOD UREA NITROGEN [1]: 15.33 mg/dL
- CARBON DIOXIDE [1]: 23 mmol/L
- CHLORIDE [1]: 103.5 MEQ/L
- CHOLESTEROL [1]: 70.5 mg/dL
- CREATINE PHOSPHOKINASE [1]: 651.83 u/L
- CREATININE [1]: 0.22 mg/dL
- GLUCOSE [1]: 180.67 mg/dL
- LACTATE DEHYDROGENASE [1]: 165 u/L
- LIPASE [1]: 9.33 u/L
- PHOSPHORUS [1]: 12.03 mg/dL
- POTASSIUM [1]: 6.17 MEQ/L
- SODIUM [1]: 142.62 MEQ/L
- TOTAL BILIRUBIN [1]: 0.2 mg/dL
- TOTAL PROTEIN [1]: 5.73 G/DL
- URIC ACID [1]: 1.77 mg/dL
- ABSOLUTE BASOPHIL [2]: 0 CELLS/uL
- ABSOLUTE EOSINOPHIL [2]: 0 CELLS/uL
- ABSOLUTE LYMPHOCYTE [2]: 12736.67 CELLS/uL
- ABSOLUTE MONOCYTE [2]: 253.5 CELLS/uL
- ABSOLUTE SEGMENTED NEUTROPHIL [2]: 1193.17 CELLS/uL
- BASOPHIL [2]: 0%
- EOSINOPHIL [2]: 0%
- ERYTHROCYTE COUNT [2]: 5.72 x10E6/uL
- HEMATOCRIT [2]: 36.05%
- HEMOGLOBIN [2]: 13.62 G/DL
- LEUKOCYTE COUNT [2]: 14.18 x10E3/uL
- LYMPHOCYTE [2]: 89.33%
- MEAN CORPUSCULAR HEMOGLOBIN [2]: 23.83 pg
- MEAN CORPUSCULAR HEMOGLOBIN CONCENTRATION [2]: 37.8 G/DL
- MEAN CORPUSCULAR VOLUME [2]: 63.05 fL
- MONOCYTE [2]: 1.83%
- NEUTROPHIL [2]: 8.83%
- NUCLEATED RED BLOOD CELLS [2]: 0 /100WBC
- PLATELET COUNT [2]: 1322.17 x10E3/uL
- ALANINE AMINOTRANSFERASE [2]: 48.83 u/L
- ALBUMIN [2]: 4.27 G/DL
- ALKALINE PHOSPHATASE [2]: 295.17 u/L
- ASPARTATE AMINOTRANSFERASE [2]: 75.83 u/L
- BLOOD UREA NITROGEN [2]: 15.5 mg/dL
- CARBON DIOXIDE [2]: 30.5 mmol/L
- CHLORIDE [2]: 102.33 MEQ/L
- CHOLESTEROL [2]: 76.17 mg/dL
- CREATINE PHOSPHOKINASE [2]: 205.5 u/L
- CREATININE [2]: 0.2 mg/dL
- GLUCOSE [2]: 149.67 mg/dL
- LACTATE DEHYDROGENASE [2]: 124.5 u/L
- LIPASE [2]: 10 u/L
- PHOSPHORUS [2]: 10.93 mg/dL
- POTASSIUM [2]: 6.59 MEQ/L
- SODIUM [2]: 143.1 MEQ/L
- TOTAL BILIRUBIN [2]: 0.2 mg/dL
- TOTAL PROTEIN [2]: 6.05 G/DL
- URIC ACID [2]: 1.45 mg/dL
- ABSOLUTE BASOPHIL [3]: 0 CELLS/uL
- ABSOLUTE EOSINOPHIL [3]: 0 CELLS/uL
- ABSOLUTE LYMPHOCYTE [3]: 12277.33 CELLS/uL
- ABSOLUTE MONOCYTE [3]: 275.33 CELLS/uL
- ABSOLUTE SEGMENTED NEUTROPHIL [3]: 1214 CELLS/uL
- BASOPHIL [3]: 0%
- EOSINOPHIL [3]: 0%
- ERYTHROCYTE COUNT [3]: 5.64 x10E6/uL
- HEMATOCRIT [3]: 34.87%
- HEMOGLOBIN [3]: 13.13 G/DL
- LEUKOCYTE COUNT [3]: 13.77 x10E3/uL
- LYMPHOCYTE [3]: 89.33%
- MEAN CORPUSCULAR HEMOGLOBIN [3]: 23.3 pg
- MEAN CORPUSCULAR HEMOGLOBIN CONCENTRATION [3]: 37.67 G/DL
- MEAN CORPUSCULAR VOLUME [3]: 61.83 fL
- MONOCYTE [3]: 2%
- NEUTROPHIL [3]: 8.67%
- NUCLEATED RED BLOOD CELLS [3]: 0 /100WBC
- PLATELET COUNT [3]: 1307.67 x10E3/uL
- ALANINE AMINOTRANSFERASE [3]: 41.67 u/L
- ALBUMIN [3]: 4.47 G/DL
- ALKALINE PHOSPHATASE [3]: 339.67 u/L
- ASPARTATE AMINOTRANSFERASE [3]: 84 u/L
- BLOOD UREA NITROGEN [3]: 18 mg/dL
- CARBON DIOXIDE [3]: 24.67 mmol/L
- CHLORIDE [3]: 102.67 MEQ/L
- CHOLESTEROL [3]: 79.67 mg/dL
- CREATINE PHOSPHOKINASE [3]: 217.33 u/L
- CREATININE [3]: 0.21 mg/dL
- GLUCOSE [3]: 142.33 mg/dL
- LACTATE DEHYDROGENASE [3]: 343.67 u/L
- LIPASE [3]: 10 u/L
- PHOSPHORUS [3]: 13.23 mg/dL
- POTASSIUM [3]: 6.86 MEQ/L
- SODIUM [3]: 144.73 MEQ/L
- TOTAL BILIRUBIN [3]: 0.23 mg/dL
- TOTAL PROTEIN [3]: 6 G/DL
- URIC ACID [3]: 2 mg/dL
